According to ChEMBL document CHEMBL1201862, “PubChem BioAssay data set” (2004):
Calls of active or inactive are those of the source.

Key:
Aurora kinase A = molecular target: T1, Aurora kinase A (Homo sapiens, UniProt O14965); type: functional;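 also: value from the Navigating the Kinome kinase panel profiling, panel entry STK6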
T1 sequence (O14965 whole entry): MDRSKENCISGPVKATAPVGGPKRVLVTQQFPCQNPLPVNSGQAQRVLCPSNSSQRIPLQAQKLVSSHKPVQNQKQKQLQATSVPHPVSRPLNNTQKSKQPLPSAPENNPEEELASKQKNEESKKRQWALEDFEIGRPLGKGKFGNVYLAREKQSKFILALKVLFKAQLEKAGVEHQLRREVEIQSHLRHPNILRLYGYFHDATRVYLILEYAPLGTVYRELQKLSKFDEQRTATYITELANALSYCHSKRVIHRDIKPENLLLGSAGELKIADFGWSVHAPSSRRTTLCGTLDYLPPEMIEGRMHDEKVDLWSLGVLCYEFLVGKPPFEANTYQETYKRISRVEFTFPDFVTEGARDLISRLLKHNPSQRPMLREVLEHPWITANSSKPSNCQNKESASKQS

[1] = molecular target: Vascular endothelial growth factor receptor 2 (Homo sapiens, UniProt P35968); type: functional
Chain of Vascular endothelial growth factor receptor 2 (P35968 whole entry): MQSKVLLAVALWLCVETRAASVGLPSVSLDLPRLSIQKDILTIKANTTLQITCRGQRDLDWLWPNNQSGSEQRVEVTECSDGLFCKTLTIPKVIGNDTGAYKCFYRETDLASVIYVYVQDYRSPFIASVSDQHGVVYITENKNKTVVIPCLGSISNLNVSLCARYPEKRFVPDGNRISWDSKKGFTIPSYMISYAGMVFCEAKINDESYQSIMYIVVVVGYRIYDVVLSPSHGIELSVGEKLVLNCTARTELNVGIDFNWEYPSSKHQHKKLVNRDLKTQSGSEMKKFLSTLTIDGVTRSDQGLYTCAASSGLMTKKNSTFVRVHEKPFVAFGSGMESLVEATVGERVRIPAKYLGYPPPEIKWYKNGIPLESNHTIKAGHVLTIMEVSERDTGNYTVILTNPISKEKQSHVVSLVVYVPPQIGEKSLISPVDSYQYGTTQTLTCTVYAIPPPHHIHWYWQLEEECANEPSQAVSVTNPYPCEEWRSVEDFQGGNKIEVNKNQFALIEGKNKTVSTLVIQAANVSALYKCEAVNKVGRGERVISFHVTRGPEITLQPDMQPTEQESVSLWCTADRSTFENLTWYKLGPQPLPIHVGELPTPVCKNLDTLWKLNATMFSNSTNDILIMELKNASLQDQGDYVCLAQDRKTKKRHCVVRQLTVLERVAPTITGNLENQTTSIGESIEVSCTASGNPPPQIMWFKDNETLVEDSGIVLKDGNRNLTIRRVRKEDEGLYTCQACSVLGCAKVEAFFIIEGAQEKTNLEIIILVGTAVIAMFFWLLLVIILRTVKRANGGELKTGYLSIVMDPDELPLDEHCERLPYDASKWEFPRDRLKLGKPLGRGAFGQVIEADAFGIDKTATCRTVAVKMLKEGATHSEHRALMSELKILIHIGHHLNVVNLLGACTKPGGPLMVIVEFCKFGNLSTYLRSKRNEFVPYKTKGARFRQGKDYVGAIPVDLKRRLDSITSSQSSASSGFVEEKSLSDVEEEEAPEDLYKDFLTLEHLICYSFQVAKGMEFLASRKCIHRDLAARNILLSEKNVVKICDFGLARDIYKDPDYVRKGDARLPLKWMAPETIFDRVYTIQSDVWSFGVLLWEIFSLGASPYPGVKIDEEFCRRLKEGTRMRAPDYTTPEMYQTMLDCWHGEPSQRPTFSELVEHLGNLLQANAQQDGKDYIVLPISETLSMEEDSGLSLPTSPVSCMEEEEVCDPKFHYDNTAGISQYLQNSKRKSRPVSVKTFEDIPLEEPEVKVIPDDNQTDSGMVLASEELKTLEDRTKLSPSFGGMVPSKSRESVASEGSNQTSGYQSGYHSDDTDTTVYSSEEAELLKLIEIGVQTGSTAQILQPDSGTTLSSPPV

Aurora kinase B = Aurora kinase B (Homo sapiens, UniProt Q96GD4); type: functional
Chain of Aurora kinase B (Q96GD4 whole entry): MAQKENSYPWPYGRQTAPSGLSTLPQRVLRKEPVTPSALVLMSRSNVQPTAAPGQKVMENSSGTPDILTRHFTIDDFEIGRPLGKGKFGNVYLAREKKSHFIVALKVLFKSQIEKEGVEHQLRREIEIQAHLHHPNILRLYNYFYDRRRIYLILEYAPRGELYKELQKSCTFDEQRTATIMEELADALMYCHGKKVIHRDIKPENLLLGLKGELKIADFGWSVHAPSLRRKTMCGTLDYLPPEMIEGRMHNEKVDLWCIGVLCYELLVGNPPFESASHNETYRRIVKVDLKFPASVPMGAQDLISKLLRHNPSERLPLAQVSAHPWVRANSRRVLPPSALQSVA

[2] = Luminescence Cell-Based Dose Confirmation HTS to Identify Activators of 5'UTR Stem-Loop Driven Alpha-Synuclein mRNA Translation in H4 Neuroglioblastoma Cells. [Related pubchem assays: 1829 (Project Summary), 1814 (Primary HTS)]; type: functional
[3] = Luminescence Cell-Based Dose Response HTS to Identify Activators of Luciferase Translation or Activity in H4 […] Cells. [Related pubchem assays: 1829 (Project Summary), 1814 (Primary HTS)]; type: functional
H4 = test: Luminescence Cell-Based Dose Response HTS to Identify Activators of 5'UTR Stem-Loop Driven Prion Protein mRNA Translation in H4 Neuroglioblastoma Cells. [Related pubchem assays: 1829 (Project Summary), 1814 (Primary HTS)]; type: functional; details: Homo sapiens
[4] = molecular target: FAD-linked sulfhydryl oxidase ALR (Homo sapiens, UniProt P55789); test: inhibitors of human ALR sulfhydryl oxidase, dose response, biochemical, H2O2 detection, luminescence, cherry-pick (AID 493248)
Chain of FAD-linked sulfhydryl oxidase ALR (P55789 whole entry): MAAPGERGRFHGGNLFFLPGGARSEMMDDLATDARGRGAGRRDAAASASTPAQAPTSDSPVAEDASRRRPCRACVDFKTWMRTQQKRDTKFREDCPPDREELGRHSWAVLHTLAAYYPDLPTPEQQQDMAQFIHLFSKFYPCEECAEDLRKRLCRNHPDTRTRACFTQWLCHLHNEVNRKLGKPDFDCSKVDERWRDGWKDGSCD

Vero = Vero cell cytotoxicity, cytotoxicity control for flavivirus capping enzyme inhibitors (AID 588742); type: functional; details: Chlorocebus sabaeus
[5] = molecular target: T2, Sentrin-specific protease 8 (Homo sapiens, UniProt Q96LD8); test: SENP8 protease inhibitors, SAR follow-up, biochemical, luminescence (AID 504501); type: functional
T2 sequence (Q96LD8 whole entry): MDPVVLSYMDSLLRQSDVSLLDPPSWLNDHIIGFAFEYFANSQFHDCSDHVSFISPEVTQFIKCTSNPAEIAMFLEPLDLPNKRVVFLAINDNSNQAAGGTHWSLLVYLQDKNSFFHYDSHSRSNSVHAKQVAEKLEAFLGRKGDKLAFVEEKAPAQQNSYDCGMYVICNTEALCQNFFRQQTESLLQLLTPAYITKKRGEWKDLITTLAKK

Caspase-3 [6] = molecular target: T3, Caspase-3 (Homo sapiens, UniProt P42574); test: SAR Analysis of small molecule inhibitors of Sentrin-specific proteases (SENPs) using a Caspase-3 Selectivity assay. [Related pubchem assays (depositor defined):AID2540, AID2599, AID434973, AID489001]; type: functional
T3 sequence (P42574 whole entry): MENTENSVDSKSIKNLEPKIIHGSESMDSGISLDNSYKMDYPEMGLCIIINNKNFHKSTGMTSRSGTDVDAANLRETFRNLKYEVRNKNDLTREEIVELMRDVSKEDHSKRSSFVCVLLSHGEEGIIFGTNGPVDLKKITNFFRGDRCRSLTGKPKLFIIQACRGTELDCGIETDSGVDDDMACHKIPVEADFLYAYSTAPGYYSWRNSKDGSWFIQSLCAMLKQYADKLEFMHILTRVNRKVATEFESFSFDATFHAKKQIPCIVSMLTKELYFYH

[7] = molecular target: T4, Sentrin-specific protease 6 (Homo sapiens, UniProt Q9GZR1); test: SAR Analysis of small molecule inhibitors of Sentrin-specific protease 6 (SENP6) using a Luminescent assay. [Related pubchem assays (depositor defined):AID2582, AID2599]; type: functional
T4 sequence (Q9GZR1 whole entry): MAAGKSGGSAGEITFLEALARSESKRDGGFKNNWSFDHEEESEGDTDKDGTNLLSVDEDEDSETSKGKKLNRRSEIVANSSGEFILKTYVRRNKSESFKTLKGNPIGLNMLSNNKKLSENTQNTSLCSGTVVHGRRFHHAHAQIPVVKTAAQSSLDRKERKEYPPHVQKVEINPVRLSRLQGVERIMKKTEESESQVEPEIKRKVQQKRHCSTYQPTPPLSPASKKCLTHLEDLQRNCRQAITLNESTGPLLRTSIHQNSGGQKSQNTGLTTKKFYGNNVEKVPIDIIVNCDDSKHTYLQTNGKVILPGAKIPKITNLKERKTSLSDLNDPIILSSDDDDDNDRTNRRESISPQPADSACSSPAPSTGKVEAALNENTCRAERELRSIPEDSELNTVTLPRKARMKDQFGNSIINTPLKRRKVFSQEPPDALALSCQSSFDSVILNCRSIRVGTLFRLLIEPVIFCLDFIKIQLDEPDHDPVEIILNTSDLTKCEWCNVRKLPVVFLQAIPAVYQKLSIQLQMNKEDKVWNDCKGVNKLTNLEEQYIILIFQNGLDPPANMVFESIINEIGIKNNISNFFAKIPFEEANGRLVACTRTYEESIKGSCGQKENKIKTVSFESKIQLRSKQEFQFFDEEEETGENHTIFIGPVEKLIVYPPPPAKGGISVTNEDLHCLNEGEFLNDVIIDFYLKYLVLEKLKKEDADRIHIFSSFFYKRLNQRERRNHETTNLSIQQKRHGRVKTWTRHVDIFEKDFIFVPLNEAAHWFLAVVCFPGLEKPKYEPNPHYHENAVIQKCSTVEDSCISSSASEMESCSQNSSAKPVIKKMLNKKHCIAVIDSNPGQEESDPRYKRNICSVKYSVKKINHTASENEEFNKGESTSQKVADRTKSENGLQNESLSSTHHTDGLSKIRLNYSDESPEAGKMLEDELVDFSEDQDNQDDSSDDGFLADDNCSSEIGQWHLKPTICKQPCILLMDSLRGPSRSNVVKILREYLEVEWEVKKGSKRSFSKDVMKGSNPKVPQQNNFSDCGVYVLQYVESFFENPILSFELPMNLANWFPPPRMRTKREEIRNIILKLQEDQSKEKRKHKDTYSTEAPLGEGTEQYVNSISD

[8] = molecular target: T5, Sentrin-specific protease 7 (Homo sapiens, UniProt Q9BQF6); test: SENP7 protease inhibitors, SAR follow-up, biochemical, luminescence (AID 504497); type: functional
T5 sequence (Q9BQF6 whole entry): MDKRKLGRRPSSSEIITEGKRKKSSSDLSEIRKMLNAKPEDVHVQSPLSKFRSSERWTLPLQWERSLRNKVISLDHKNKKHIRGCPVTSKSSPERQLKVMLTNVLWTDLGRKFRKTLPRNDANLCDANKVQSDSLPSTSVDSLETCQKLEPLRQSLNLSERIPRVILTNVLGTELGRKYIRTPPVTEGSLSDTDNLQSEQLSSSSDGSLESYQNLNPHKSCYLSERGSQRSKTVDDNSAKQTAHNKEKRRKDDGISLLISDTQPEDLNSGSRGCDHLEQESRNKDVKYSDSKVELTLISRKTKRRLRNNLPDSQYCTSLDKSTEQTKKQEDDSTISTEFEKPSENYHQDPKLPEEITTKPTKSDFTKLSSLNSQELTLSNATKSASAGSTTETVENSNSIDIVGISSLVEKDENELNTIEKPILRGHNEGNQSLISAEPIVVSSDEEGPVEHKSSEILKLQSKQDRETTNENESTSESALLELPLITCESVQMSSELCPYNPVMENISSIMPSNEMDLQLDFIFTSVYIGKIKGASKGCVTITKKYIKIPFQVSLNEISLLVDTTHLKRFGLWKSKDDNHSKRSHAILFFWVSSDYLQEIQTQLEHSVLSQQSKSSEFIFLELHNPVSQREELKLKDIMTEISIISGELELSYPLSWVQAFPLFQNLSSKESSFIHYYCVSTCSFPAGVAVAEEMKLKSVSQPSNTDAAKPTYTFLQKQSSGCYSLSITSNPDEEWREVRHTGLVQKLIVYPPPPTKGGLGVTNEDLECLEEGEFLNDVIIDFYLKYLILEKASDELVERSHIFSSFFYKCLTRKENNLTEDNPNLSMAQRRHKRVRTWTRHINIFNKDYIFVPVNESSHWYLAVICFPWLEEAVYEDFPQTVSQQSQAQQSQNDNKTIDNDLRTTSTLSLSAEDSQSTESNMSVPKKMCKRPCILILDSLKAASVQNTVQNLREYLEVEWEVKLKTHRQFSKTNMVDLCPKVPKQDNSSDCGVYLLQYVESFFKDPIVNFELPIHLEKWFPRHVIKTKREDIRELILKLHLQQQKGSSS

[9] = molecular target: Melanin-concentrating hormone receptor 1 (Homo sapiens, UniProt Q99705); test: Late-stage fluorescence-based counterscreen for antagonists of the G-protein coupled receptor 7 (GPR7): cell-based dose response assay to identify antagonists of the melanin-concentrating hormone receptor 1 (MCHR1) Set 6.; type: functional
Chain of Melanin-concentrating hormone receptor 1 (Q99705 whole entry): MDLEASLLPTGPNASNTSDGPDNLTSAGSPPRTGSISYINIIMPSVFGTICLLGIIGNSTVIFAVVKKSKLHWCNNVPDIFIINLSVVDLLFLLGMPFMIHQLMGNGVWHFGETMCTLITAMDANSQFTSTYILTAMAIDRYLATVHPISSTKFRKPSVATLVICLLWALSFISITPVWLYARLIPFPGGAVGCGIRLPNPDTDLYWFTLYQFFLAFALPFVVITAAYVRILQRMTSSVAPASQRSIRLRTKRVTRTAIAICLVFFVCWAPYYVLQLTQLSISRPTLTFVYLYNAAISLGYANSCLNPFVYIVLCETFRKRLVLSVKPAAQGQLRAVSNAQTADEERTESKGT

[10] = molecular target: T6, Neuropeptides B/W receptor type 1 (Homo sapiens, UniProt P48145); test: GPR7 antagonist potency, late-stage follow-up, cell-based, fluorescence, dose response, set 6 (AID 588583); type: functional
T6 sequence (P48145 whole entry): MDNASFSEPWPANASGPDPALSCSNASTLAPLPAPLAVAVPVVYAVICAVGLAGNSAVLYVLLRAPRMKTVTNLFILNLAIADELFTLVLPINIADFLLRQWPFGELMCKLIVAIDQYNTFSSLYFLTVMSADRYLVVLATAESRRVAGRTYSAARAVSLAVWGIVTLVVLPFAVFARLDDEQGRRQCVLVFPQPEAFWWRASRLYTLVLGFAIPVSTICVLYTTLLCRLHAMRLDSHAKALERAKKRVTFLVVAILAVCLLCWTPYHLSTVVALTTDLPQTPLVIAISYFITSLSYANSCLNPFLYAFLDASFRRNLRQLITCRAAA

[11] = molecular target: T7, Mannose-6-phosphate isomerase (Homo sapiens, UniProt P34949); test: human PMI inhibitors, high substrate, primary screen, biochemical, fluorescence intensity, high mannose 6-phosphate (AID 1220)
T7 sequence (P34949 whole entry): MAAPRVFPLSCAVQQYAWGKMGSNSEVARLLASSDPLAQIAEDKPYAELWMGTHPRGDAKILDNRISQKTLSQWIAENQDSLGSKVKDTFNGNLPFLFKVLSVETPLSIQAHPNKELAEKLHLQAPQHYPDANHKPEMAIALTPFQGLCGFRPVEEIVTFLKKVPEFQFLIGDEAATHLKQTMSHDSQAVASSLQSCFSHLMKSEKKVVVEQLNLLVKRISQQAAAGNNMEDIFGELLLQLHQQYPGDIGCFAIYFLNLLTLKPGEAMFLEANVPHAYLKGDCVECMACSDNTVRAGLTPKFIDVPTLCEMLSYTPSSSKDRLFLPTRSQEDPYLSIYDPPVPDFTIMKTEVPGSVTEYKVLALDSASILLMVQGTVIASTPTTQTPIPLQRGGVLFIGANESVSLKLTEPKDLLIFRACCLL

[12] = molecular target: Apoptotic protease-activating factor 1 (Homo sapiens, UniProt O14727); type: functional
Chain of Apoptotic protease-activating factor 1 (O14727 whole entry): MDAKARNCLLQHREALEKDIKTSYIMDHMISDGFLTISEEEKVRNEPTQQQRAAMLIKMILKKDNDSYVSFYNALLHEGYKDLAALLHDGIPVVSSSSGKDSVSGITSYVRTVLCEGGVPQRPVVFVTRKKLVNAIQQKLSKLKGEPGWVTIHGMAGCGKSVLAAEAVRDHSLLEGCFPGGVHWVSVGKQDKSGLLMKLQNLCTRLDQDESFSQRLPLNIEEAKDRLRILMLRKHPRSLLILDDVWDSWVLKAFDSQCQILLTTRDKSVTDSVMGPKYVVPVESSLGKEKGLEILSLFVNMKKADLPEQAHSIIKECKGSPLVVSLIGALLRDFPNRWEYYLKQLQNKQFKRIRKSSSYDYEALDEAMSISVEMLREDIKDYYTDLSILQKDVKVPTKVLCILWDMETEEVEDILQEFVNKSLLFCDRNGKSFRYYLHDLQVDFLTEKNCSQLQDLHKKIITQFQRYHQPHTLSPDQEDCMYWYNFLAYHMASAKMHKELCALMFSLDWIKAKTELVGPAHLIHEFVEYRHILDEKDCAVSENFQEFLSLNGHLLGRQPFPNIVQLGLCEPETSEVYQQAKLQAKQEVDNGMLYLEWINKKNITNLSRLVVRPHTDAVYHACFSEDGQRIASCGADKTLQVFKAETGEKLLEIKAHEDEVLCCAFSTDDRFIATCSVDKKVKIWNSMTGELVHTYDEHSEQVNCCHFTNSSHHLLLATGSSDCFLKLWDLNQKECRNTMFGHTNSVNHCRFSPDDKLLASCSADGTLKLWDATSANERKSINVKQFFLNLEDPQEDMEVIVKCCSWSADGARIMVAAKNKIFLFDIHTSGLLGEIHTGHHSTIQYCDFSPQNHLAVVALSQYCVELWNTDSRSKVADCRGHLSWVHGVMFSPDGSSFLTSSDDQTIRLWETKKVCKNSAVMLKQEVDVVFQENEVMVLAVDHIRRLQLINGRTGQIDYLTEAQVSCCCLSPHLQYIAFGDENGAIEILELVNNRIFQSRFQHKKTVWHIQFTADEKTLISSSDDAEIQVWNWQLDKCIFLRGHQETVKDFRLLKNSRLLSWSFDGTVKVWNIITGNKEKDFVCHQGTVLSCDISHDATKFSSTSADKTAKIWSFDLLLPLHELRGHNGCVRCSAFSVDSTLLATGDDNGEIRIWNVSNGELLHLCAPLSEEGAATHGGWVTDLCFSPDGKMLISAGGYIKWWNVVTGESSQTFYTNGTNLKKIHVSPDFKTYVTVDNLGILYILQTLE

Caspase-3 [13] = molecular target: T3, Caspase-3; type: functional
[14] = molecular target: T5, Sentrin-specific protease 7; type: functional
[15] = molecular target: T4, Sentrin-specific protease 6; type: functional
[16] = molecular target: T2, Sentrin-specific protease 8; type: functional
[17] = molecular target: Cyclin-dependent kinase 19 (Homo sapiens, UniProt Q9BWU1); test: Navigating the Kinome. Panel member name: CDC2L6; type: functional
Chain of Cyclin-dependent kinase 19 (Q9BWU1 whole entry): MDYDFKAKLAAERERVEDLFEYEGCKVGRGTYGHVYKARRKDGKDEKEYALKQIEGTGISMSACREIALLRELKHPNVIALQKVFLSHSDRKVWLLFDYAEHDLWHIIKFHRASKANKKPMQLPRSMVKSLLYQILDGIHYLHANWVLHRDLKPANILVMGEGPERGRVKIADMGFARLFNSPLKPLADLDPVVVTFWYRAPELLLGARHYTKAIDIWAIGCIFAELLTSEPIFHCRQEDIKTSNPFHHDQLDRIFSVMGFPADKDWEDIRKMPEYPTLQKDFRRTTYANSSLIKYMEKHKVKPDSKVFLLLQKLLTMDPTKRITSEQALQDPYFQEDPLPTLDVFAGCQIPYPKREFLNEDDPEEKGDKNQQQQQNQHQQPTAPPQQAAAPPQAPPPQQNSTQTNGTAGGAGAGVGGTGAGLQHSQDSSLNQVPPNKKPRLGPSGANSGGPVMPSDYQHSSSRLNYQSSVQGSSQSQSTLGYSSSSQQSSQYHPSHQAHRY

Cytochrome P450 2D6 = Cytochrome P450 2D6 (Homo sapiens, UniProt P10635);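 also: CYP2D6 member of a cytochrome P450 panel assay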
Chain of Cytochrome P450 2D6 (P10635 whole entry): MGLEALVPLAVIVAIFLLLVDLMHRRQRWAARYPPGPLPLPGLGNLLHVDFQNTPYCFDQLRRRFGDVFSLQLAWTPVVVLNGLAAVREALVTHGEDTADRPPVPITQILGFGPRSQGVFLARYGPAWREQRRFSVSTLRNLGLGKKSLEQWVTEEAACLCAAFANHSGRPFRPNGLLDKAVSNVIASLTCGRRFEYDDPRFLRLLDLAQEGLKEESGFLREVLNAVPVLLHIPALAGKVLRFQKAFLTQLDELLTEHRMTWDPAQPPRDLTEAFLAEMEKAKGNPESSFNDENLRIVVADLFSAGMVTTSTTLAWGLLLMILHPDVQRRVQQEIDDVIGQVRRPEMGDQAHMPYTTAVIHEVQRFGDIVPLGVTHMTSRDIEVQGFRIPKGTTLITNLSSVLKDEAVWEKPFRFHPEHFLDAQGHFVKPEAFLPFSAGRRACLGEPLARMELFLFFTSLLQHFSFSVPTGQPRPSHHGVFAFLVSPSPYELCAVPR

Cytochrome P450 2C9 = Cytochrome P450 2C9 (Homo sapiens, UniProt P11712)
Chain of Cytochrome P450 2C9 (P11712 whole entry): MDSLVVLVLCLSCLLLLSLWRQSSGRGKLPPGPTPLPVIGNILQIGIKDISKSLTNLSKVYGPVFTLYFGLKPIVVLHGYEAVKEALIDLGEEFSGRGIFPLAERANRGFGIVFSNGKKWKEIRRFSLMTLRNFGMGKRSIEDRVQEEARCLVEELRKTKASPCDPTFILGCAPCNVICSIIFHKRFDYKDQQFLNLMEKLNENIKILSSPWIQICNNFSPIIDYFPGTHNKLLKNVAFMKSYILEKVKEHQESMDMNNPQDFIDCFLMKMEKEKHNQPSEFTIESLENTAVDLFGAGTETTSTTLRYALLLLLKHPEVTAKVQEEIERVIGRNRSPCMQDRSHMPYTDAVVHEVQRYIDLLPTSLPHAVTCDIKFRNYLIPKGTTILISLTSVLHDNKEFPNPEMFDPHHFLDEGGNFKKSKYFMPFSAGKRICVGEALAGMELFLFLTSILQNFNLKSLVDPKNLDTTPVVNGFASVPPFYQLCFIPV

SMILES: COc1cc(Nc2ncc(C(F)(F)F)c(N)n2)cc(OC)c1OC
- Ki (Aurora kinase A): 200 nM (active)
- Ki [1]: 3.98 µM (active)
- Ki (Aurora kinase B): 39.8 nM (active)

SMILES: O=C1c2sc3nc4n(c(=O)c3c2CCC1Br)CCCCC4 (stereo unspecified)
- EC50 [2]: 5.38 µM (active)
- EC50 [3]: 8.79 µM (active)
- EC50 (H4): 7.07 µM (active)
- AC50 [4]: 1.7 µM (active)
- CC50 (Vero): 24.2 µM (active)

SMILES: CN(C)c1cc(NN=Cc2ccco2)nc(N(C)C)n1
- IC50 [5]: 75.6 µM (active)
- IC50 (Caspase-3 [6]): > 99 µM (inactive)
- IC50 [7]: 17.5 µM (active)
- IC50 [8]: 35 µM (active)

SMILES: N#CC(c1nc2ccccc2s1)c1c(Cl)cnn(Cc2cccc3ccccc23)c1=O (stereo unspecified)
- IC50 [9]: 186 nM (active)
- IC50 [10]: 186 nM (active)

SMILES: O=C1OC(Nc2ccc3ncccc3c2)c2ccccc21 (stereo unspecified)
- IC50 [11]: > 50 µM (not active)
- IC50 [12]: 32.9 µM (active)

SMILES: Nc1ccc(-c2nc3cc([N+](=O)[O-])ccc3[nH]2)cc1
- IC50 (Caspase-3 [13]): 17.2 µM (active)
- IC50 [14]: 8.59 µM (active)
- IC50 [15]: 28.3 µM (active)
- IC50 [16]: 23.8 µM (active)

SMILES: Cc1ccc(NC(=O)CCc2c(C)nn(-c3ccc(N4CCCCC4)nn3)c2C)cc1F
- IC50 (Caspase-3 [13]): 21.6 µM (active)
- IC50 [14]: 7.86 µM (active)
- IC50 [15]: 24.4 µM (active)
- IC50 [16]: 29.4 µM (active)

SMILES: O=C(/C=C/c1ccc(OC2CSC2)cc1)c1ccccc1
- IC50 [5]: 8.36 µM (active)
- IC50 (Caspase-3 [6]): 23.3 µM (active)
- IC50 [7]: 7.59 µM (active)
- IC50 [8]: 5.23 µM (active)

SMILES: Cc1ccc(NC(=O)Nc2ccc(-c3c(C(C)C)sc4ncnc(N)c34)cc2)cc1
- Ki (Aurora kinase A): 79.4 nM (active)
- Ki [17]: > 100 µM (inactive)

SMILES: Cc1ccc(-c2nn3c(C)nnc3c3ccccc23)cc1S(=O)(=O)NCc1ccccc1
- IC50 [12]: 9.2 µM (active)
- AC50 (Cytochrome P450 2D6): 15.8 µM (inconclusive)
- AC50 (Cytochrome P450 2C9): 1.26 µM (inconclusive)

SMILES: NC(=O)c1cccc2[nH]c(-c3ccc(N4CCN(Cc5ccccc5)CC4)nc3)nc12
- Ki (Aurora kinase A): 501 nM (active)
- Ki [1]: 2 µM (active)
- Ki (Aurora kinase B): 20 nM (active)
